Data published in patent US12227488B2, “Small molecule degraders of Helios and methods of use” (DANA-FARBER CANCER INSTITUTE, INC., priority 2018, dated 2025).
Entries after “also recorded” stand apart in the source; their conditions may differ.

What was measured:
GSPT1 = GSPT1 (Homo sapiens, UniProt P15170+Q96SW2); assay: Cellular degradation assay, eGFP-GSPT1 fusion with mCherry reporter in Flp-In 293 cells; assay type: cell-based; design: expressed in transfected cells; host or cells: Flp-In 293; details: for GSPT1 GFP/RFP Relative Abundance: 5 h incubation, n=1
Sequence of GSPT1 (P15170 whole entry, the tested form may be a part): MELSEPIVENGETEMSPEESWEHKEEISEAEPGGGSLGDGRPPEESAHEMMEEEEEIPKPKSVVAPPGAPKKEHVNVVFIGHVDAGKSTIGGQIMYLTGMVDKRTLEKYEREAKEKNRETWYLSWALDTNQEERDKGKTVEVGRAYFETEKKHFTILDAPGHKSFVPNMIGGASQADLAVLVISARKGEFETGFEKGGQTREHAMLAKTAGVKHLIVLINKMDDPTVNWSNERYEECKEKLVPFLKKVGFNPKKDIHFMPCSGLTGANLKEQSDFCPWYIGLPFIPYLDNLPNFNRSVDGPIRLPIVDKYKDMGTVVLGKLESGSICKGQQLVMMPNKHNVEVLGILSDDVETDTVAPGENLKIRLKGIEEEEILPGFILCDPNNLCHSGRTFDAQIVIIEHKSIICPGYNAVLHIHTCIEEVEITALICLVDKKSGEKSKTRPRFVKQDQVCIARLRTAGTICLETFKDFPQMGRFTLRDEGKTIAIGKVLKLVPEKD
Sequence of GSPT1 (Q96SW2 whole entry, the tested form may be a part): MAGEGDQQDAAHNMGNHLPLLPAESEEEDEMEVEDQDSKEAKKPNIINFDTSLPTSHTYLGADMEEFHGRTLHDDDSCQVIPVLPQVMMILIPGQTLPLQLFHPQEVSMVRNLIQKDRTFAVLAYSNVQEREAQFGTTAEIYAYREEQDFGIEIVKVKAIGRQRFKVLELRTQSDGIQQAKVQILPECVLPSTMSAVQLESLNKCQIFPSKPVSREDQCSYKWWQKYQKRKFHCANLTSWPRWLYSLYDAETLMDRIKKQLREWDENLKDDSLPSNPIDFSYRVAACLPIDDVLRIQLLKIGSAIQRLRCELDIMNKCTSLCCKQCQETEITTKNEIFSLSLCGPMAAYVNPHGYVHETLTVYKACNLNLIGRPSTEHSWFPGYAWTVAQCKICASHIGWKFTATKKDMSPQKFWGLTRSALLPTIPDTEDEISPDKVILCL
Sequence of GSPT1 (Q16531 whole entry partner, the tested form may be a part): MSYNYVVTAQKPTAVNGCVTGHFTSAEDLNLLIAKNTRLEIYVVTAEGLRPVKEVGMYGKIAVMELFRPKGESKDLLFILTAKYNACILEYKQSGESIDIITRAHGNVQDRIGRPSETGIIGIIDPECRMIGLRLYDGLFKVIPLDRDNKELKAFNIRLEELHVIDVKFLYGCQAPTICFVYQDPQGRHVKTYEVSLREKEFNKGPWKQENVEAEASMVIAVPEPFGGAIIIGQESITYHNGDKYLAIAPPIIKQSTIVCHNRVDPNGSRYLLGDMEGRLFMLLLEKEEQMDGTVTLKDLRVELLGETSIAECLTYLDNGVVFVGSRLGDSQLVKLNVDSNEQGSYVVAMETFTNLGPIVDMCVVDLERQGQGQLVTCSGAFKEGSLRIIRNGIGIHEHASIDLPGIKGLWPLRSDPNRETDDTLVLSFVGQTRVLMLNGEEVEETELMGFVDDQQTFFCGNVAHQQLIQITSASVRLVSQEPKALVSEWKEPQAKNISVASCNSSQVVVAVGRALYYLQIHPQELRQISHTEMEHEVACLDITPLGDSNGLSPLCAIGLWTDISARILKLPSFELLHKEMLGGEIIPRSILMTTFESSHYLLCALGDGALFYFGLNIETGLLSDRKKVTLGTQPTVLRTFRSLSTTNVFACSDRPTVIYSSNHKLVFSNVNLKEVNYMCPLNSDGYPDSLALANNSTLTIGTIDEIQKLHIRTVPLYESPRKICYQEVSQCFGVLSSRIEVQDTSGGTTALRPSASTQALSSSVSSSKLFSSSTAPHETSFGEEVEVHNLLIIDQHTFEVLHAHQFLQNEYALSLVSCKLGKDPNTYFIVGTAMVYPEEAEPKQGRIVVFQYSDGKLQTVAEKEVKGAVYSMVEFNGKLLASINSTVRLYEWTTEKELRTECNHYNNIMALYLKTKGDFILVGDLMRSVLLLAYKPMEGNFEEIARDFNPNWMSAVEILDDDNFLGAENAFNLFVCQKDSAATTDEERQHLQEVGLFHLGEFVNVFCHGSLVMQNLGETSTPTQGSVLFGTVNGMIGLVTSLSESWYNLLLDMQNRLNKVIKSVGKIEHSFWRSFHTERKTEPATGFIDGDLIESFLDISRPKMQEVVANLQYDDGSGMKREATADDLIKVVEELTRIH
Method in brief: (§1)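 Flp-In 293 cells stably expressing eGFP-tagged degron fusions with P2A-mCherry reporter were treated with compound titrations (0.5% DMSO) for 5 hours. Imaging quantified GFP-positive/mCherry-positive cell fraction per well; DC50 at 5 h from nonlinear variable-slope fit.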

SALL4 ZNF1-2 = target: T1, SALL4 ZNF1-2 (Homo sapiens, UniProt Q96SW2+Q9UJQ4); assay: Cellular degradation assay, eGFP-SALL4 ZnF1-2 fusion with mCherry reporter in Flp-In 293 cells; assay type: cell-based; details: 5 h incubation, n=1
T1 construct: IKZF1Δ, IKZF2Δ, GSPT1 and SALL4 ZnF1-2 were subcloned; expressed in transfected cells; host or cells: Flp-In 293
T1 sequence (Q9UJQ4 378-438 limits assumed): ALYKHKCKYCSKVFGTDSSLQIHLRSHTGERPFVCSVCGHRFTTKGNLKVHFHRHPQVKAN
T1 sequence (Q96SW2 whole entry, the tested form may be a part): as the sequence (Q96SW2 whole entry, the tested form may be a part) above
T1 sequence (Q16531 whole entry partner, the tested form may be a part): as the sequence (Q16531 whole entry partner, the tested form may be a part) above
Method in brief: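 Flp-In 293 cells stably expressing eGFP-SALL4 ZnF1-2 fusion plus mCherry reporter were treated with compound titrations (0.5% DMSO) for 5 hours. Imaging at 488/561 nm gave, per well, the fraction of GFP-positive among mCherry-positive cells.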

IKZF2 = assay: Cellular degradation assay, eGFP-IKZF2Δ fusion with mCherry reporter in Flp-In 293 cells; assay type: cell-based; details: for IKZF2 GFP/RFP Relative Abundance: 5 h incubation, n=1
Method in brief: as §1

CRBN and Helios (IKZF2) = target: T2, CRBN and Helios (IKZF2) (Homo sapiens, UniProt Q96SW2+Q9UKS7); assay: TR-FRET dimerization assay (CRBN-IKZF2 ternary complex formation); assay type: binding; details: for TR-FRET-IKZF2 (Normalized to CC-885): n=1
T2 construct: His (N); Strep (N)
T2 sequence (Q96SW2 whole entry): as the sequence (Q96SW2 whole entry, the tested form may be a part) above
T2 sequence (Q9UKS7 whole entry): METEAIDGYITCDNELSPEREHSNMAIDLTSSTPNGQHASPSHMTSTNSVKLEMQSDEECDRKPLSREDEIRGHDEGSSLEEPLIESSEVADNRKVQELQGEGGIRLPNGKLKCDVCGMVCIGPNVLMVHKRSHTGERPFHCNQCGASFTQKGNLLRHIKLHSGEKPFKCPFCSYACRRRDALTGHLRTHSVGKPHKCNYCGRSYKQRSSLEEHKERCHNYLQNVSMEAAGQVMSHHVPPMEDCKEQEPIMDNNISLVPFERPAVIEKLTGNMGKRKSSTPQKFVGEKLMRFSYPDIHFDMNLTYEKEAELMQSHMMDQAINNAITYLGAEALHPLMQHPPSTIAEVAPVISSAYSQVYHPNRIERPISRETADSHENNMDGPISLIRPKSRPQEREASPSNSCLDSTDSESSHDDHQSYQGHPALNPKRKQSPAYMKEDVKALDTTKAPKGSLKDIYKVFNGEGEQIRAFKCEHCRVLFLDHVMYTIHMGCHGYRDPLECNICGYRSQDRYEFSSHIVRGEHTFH
Method in brief: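 BODIPY-labeled DDB1ΔB-CRBN and in vitro biotinylated IKZF2 were treated with increasing compound concentrations plus tracer Terbium-Streptavidin and incubated 15 min at rt. Recruitment was quantified as the 520/490 nm TR-FRET ratio; values are single measurements (n=1), each averaged from at least three technical replicates.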

IKZF1 = target: T3, IKZF1 (Homo sapiens, UniProt Q13422); assay: Cellular degradation assay, eGFP-IKZF1Δ fusion with mCherry reporter in Flp-In 293 cells; assay type: cell-based; details: for IKZF1 GFP/RFP Relative Abundance: 5 h incubation, n=1
T3 construct: expressed in transfected cells; host or cells: Flp-In 293
T3 sequence (Q13422 83-213 isoform Q13422-7 limits assumed): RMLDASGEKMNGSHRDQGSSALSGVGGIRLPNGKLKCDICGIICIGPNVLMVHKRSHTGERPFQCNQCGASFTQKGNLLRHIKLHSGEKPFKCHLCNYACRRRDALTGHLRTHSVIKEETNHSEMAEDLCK
T3 sequence (Q96SW2 whole entry partner, the tested form may be a part): as the sequence (Q96SW2 whole entry, the tested form may be a part) above
T3 sequence (Q16531 2-1140 partner limits assumed): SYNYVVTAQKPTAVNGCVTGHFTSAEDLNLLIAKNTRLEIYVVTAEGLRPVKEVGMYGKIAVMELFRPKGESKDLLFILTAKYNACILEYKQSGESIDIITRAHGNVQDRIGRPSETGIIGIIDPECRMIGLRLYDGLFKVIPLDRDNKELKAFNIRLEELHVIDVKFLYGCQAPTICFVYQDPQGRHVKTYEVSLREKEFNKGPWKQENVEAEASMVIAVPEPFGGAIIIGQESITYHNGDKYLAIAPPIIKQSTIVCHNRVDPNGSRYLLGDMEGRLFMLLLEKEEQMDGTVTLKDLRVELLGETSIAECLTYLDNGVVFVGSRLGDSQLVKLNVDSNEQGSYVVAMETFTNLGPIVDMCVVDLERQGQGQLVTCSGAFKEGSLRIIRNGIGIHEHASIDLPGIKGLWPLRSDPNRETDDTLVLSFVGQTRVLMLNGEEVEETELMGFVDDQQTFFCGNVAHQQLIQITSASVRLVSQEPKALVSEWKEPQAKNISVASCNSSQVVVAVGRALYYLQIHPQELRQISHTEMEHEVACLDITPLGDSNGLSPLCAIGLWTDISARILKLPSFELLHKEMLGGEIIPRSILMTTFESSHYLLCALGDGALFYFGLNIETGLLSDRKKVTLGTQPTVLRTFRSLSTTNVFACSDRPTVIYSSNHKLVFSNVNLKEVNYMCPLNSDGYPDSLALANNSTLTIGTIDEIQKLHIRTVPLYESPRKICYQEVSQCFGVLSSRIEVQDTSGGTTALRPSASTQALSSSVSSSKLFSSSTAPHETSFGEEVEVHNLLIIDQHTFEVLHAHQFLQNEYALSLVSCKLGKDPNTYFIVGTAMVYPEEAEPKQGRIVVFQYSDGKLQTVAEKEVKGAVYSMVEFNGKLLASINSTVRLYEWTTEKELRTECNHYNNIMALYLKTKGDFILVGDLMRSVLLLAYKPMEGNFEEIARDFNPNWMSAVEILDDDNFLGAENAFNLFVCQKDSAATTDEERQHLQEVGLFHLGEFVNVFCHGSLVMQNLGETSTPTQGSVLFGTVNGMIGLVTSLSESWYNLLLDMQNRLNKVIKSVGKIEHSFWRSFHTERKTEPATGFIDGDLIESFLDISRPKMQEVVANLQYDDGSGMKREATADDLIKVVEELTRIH
Method in brief: as §1

[1] = compound concentration 2.00E−05
[2] = compound concentration 2.00E−06
[3] = compound concentration 2.00E−07
[4] = compound concentration 6.6667E−05
[5] = compound concentration 6.6667E−06
[6] = compound concentration 6.6667E−07 (667 nM)
[7] = half degradation at 5 h (DC50,5 h), triplicate, 11 point dose response

O=C1CCC(N2C(=O)C=C(Nc3cccc(Cl)c3)C2=O)C(=O)N1 (centres unmarked) [Compound 26, 3-(3-((3-chlorophenyl)amino)-2,5-dioxo-2,5-dihydro-1H-pyrrol-1-yl)piperidine-2,6-dione]
GSPT1 GFP/RFP Relative Abundance (GSPT1; [1]): 0.952 | GSPT1 GFP/RFP Relative Abundance (GSPT1; [2]): 1.036 | GSPT1 GFP/RFP Relative Abundance (GSPT1; [3]): 1.107 | SALL4 ZNF1-2 GFP/RFP Relative Abundance (SALL4 ZNF1-2; [1]): 0.855 | SALL4 ZNF1-2 GFP/RFP Relative Abundance (SALL4 ZNF1-2; [2]): 0.869 | SALL4 ZNF1-2 GFP/RFP Relative Abundance (SALL4 ZNF1-2; [3]): 0.787 | IKZF2 GFP/RFP Relative Abundance (IKZF2; [1]): 0.913 | IKZF2 GFP/RFP Relative Abundance (IKZF2; [2]): 0.929 | IKZF2 GFP/RFP Relative Abundance (IKZF2; [3]): 0.981 | TR-FRET-IKZF2 (Normalized to CC-885) (CRBN and Helios (IKZF2); [4]): 0.365 | TR-FRET-IKZF2 (Normalized to CC-885) (CRBN and Helios (IKZF2); [5]): 0.293 | TR-FRET-IKZF2 (Normalized to CC-885) (CRBN and Helios (IKZF2); [6]): 0.228 | IKZF1 GFP/RFP Relative Abundance (IKZF1; [1]): 0.290 | IKZF1 GFP/RFP Relative Abundance (IKZF1; [2]): 0.381 | IKZF1 GFP/RFP Relative Abundance (IKZF1; [3]): 0.478

CN(C)C(=O)c1ccc(NC2=CC(=O)N(C3CCC(=O)NC3=O)C2=O)cc1 (centres unmarked) [Compound 34, 4-((1-(2,6-dioxopiperidin-3-yl)-2,5-dioxo-2,5-dihydro-1H-pyrrol-3-yl)amino)-N,N-dimethylbenzamide]
GSPT1 GFP/RFP Relative Abundance (GSPT1; [1]): 0.867 | GSPT1 GFP/RFP Relative Abundance (GSPT1; [2]): 0.821 | GSPT1 GFP/RFP Relative Abundance (GSPT1; [3]): 0.878 | SALL4 ZNF1-2 GFP/RFP Relative Abundance (SALL4 ZNF1-2; [1]): 0.940 | SALL4 ZNF1-2 GFP/RFP Relative Abundance (SALL4 ZNF1-2; [2]): 0.944 | SALL4 ZNF1-2 GFP/RFP Relative Abundance (SALL4 ZNF1-2; [3]): 0.943 | IKZF2 GFP/RFP Relative Abundance (IKZF2; [1]): 0.981 | IKZF2 GFP/RFP Relative Abundance (IKZF2; [2]): 1.018 | IKZF2 GFP/RFP Relative Abundance (IKZF2; [3]): 0.950 | TR-FRET-IKZF2 (Normalized to CC-885) (CRBN and Helios (IKZF2); [4]): 0.077 | TR-FRET-IKZF2 (Normalized to CC-885) (CRBN and Helios (IKZF2); [5]): 0.064 | TR-FRET-IKZF2 (Normalized to CC-885) (CRBN and Helios (IKZF2); [6]): 0.059 | IKZF1 GFP/RFP Relative Abundance (IKZF1; [1]): 1.042 | IKZF1 GFP/RFP Relative Abundance (IKZF1; [2]): 0.984 | IKZF1 GFP/RFP Relative Abundance (IKZF1; [3]): 0.904

O=C1CCC(N2C(=O)C=C(Nc3nc[nH]n3)C2=O)C(=O)N1 (centres unmarked) [Compound 18, 3-(3-((1H-1,2,4-triazol-3-yl)amino)-2,5-dioxo-2,5-dihydro-1H-pyrrol-1-yl)piperidine-2,6-dione]
GSPT1 GFP/RFP Relative Abundance (GSPT1; [1]): 0.880 | GSPT1 GFP/RFP Relative Abundance (GSPT1; [2]): 0.650 | GSPT1 GFP/RFP Relative Abundance (GSPT1; [3]): 0.498 | SALL4 ZNF1-2 GFP/RFP Relative Abundance (SALL4 ZNF1-2; [1]): 0.967 | SALL4 ZNF1-2 GFP/RFP Relative Abundance (SALL4 ZNF1-2; [2]): 0.999 | SALL4 ZNF1-2 GFP/RFP Relative Abundance (SALL4 ZNF1-2; [3]): 0.904 | IKZF2 GFP/RFP Relative Abundance (IKZF2; [1]): 1.055 | IKZF2 GFP/RFP Relative Abundance (IKZF2; [2]): 0.992 | IKZF2 GFP/RFP Relative Abundance (IKZF2; [3]): 0.990 | TR-FRET-IKZF2 (Normalized to CC-885) (CRBN and Helios (IKZF2); [4]): 0.062 | TR-FRET-IKZF2 (Normalized to CC-885) (CRBN and Helios (IKZF2); [5]): 0.018 | TR-FRET-IKZF2 (Normalized to CC-885) (CRBN and Helios (IKZF2); [6]): 0.024 | IKZF1 GFP/RFP Relative Abundance (IKZF1; [1]): 0.943 | IKZF1 GFP/RFP Relative Abundance (IKZF1; [2]): 0.833 | IKZF1 GFP/RFP Relative Abundance (IKZF1; [3]): 0.847

Cc1ccc(NC(=O)NCc2ccc3c(c2)CN(C2CCC(=O)NC2=O)C3=O)cc1Cl (centres unmarked) [CC-885, reference compound]
GSPT1 GFP/RFP Relative Abundance (GSPT1; [1]): 0.240 | GSPT1 GFP/RFP Relative Abundance (GSPT1; [2]): 0.041 | GSPT1 GFP/RFP Relative Abundance (GSPT1; [3]): 0.012 | DC50 (GSPT1; [7]): 0.084 nM | SALL4 ZNF1-2 GFP/RFP Relative Abundance (SALL4 ZNF1-2; [1]): 1.000 | SALL4 ZNF1-2 GFP/RFP Relative Abundance (SALL4 ZNF1-2; [2]): 0.876 | SALL4 ZNF1-2 GFP/RFP Relative Abundance (SALL4 ZNF1-2; [3]): 0.852 | IKZF2 cellular degradation, in words (IKZF2; Table 1 summary): degrade the IKZF2 in cellular assay | IKZF2 GFP/RFP Relative Abundance (IKZF2; [1]): 0.277 | IKZF2 GFP/RFP Relative Abundance (IKZF2; [2]): 0.281 | IKZF2 GFP/RFP Relative Abundance (IKZF2; [3]): 0.289 | DC50 (IKZF2; [7]): 80.7 nM | TR-FRET signal (520/490 ratio), CRBN-Helios dimerization, in words (CRBN and Helios (IKZF2); FIG. 1B, 2A, 5): some activity; also recorded: able to recruit IKZF2 to CRBN | TR-FRET-IKZF2 (Normalized to CC-885) (CRBN and Helios (IKZF2); [4]): 1.065 | TR-FRET-IKZF2 (Normalized to CC-885) (CRBN and Helios (IKZF2); [5]): 0.982 | TR-FRET-IKZF2 (Normalized to CC-885) (CRBN and Helios (IKZF2); [6]): 0.953 | IKZF1 GFP/RFP Relative Abundance (IKZF1; [1]): 0.133 | IKZF1 GFP/RFP Relative Abundance (IKZF1; [2]): 0.071 | IKZF1 GFP/RFP Relative Abundance (IKZF1; [3]): 0.077 | DC50 (IKZF1; [7]): 0.56 nM
